From patent publication US20200237742A1, “Serdexmethylphenidate Conjugates, Compositions And Methods Of Use Thereof” (priority 2018, published 2020)
Structures can show the parent of a compound that is named as a salt.

Test system: healthy, nondependent, recreational stimulant users with intranasal insufflation experience
Experiment: Intranasal study, treatment-emergent adverse events (Table 54)
Protocol: The study consisted of a Screening Period, an in-clinic Drug Discrimination Phase, a Treatment Phase, and a Follow-Up Visit.
All subjects were required to fast for at least 8 hours prior to each dose of study drug until approximately 4 hours after each dose. Abuse potential measures and pharmacokinetic samples were collected at different times after the administration of study drug. Subjects who successfully completed the Drug Discrimination Phase and who qualified for the Treatment Phase remained as inpatients to enter the Treatment Phase.

[1] = intranasal, d-MPH HCl 40 mg, SDX Cl 80 mg, N = 46 each

SMILES: COC(=O)[C@H](c1ccccc1)[C@H]1CCCCN1 [d-methylphenidate hydrochloride, d-threo-methylphenidate hydrochloride]
- typical stimulant-related adverse events (euphoric mood, hypervigilance, cardiac palpitations and tachycardia) (intranasal d-MPH HCl compared to intranasal SDX Cl): occurred more often
- Abdominal distension, subjects with event [1]: 0 n (%)
- Abdominal pain, number of occurrences [1]: 1 E
- Abdominal pain, subjects with event [1]: 1 (2.2%) n (%)
- Agitation, subjects with event [1]: 0 n (%)
- Anxiety, number of occurrences [1]: 2 E
- Anxiety, subjects with event [1]: 2 (4.3%) n (%)
- Any TEAE, number of occurrences [1]: 148 E
- Any TEAE, subjects with event [1]: 46 (100.0%) n (%)
- Arthralgia, subjects with event [1]: 0 n (%)
- Asthenia, number of occurrences [1]: 1 E
- Asthenia, subjects with event [1]: 1 (2.2%) n (%)
- Back pain, number of occurrences [1]: 1 E
- Back pain, subjects with event [1]: 1 (2.2%) n (%)
- Blood pressure diastolic increased, number of occurrences [1]: 1 E
- Blood pressure diastolic increased, subjects with event [1]: 1 (2.2%) n (%)
- Bruxism, number of occurrences [1]: 2 E
- Bruxism, subjects with event [1]: 2 (4.3%) n (%)
- Cardiac disorders, number of occurrences [1]: 29 E
- Cardiac disorders, subjects with event [1]: 19 (41.3%) n (%)
- Catheter site haematoma, subjects with event [1]: 0 n (%)
- Catheter site swelling, subjects with event [1]: 0 n (%)
- Change in sustained attention, number of occurrences [1]: 1 E
- Change in sustained attention, subjects with event [1]: 1 (2.2%) n (%)
- Chest discomfort, number of occurrences [1]: 1 E
- Chest discomfort, subjects with event [1]: 1 (2.2%) n (%)
- Chest pain, subjects with event [1]: 0 n (%)
- Claustrophobia, subjects with event [1]: 0 n (%)
- Cough, subjects with event [1]: 0 n (%)
- Decreased appetite, number of occurrences [1]: 3 E
- Decreased appetite, subjects with event [1]: 3 (6.5%) n (%)
- Defaecation urgency, number of occurrences [1]: 1 E
- Defaecation urgency, subjects with event [1]: 1 (2.2%) n (%)
- Diarrhoea, number of occurrences [1]: 1 E
- Diarrhoea, subjects with event [1]: 1 (2.2%) n (%)
- Disturbance in attention, number of occurrences [1]: 1 E
- Disturbance in attention, subjects with event [1]: 1 (2.2%) n (%)
- Dizziness, subjects with event [1]: 0 n (%)
- Dry mouth, number of occurrences [1]: 6 E
- Dry mouth, subjects with event [1]: 6 (13.0%) n (%)
- Dry throat, number of occurrences [1]: 3 E
- Dry throat, subjects with event [1]: 3 (6.5%) n (%)
- Dysgeusia, subjects with event [1]: 0 n (%)
- Dysmenorrhoea (menstrual cramps), number of occurrences [1]: 1 E
- Dysmenorrhoea (menstrual cramps), subjects with event [1]: 1 (2.2%) n (%)
- Dyspepsia, subjects with event [1]: 0 n (%)
- Ecchymosis (skin discoloration), subjects with event [1]: 0 n (%)
- Energy increased, number of occurrences [1]: 2 E
- Energy increased, subjects with event [1]: 2 (4.3%) n (%)
- Epistaxis (nosebleed), subjects with event [1]: 0 n (%)
- Euphoric mood, number of occurrences [1]: 29 E
- Euphoric mood, subjects with event [1]: 29 (63.0%) n (%)
- Eye disorders, number of occurrences [1]: 3 E
- Eye disorders, subjects with event [1]: 3 (6.5%) n (%)
- Eye irritation, number of occurrences [1]: 1 E
- Eye irritation, subjects with event [1]: 1 (2.2%) n (%)
- Eye pain, subjects with event [1]: 0 n (%)
- Fatigue, number of occurrences [1]: 3 E
- Fatigue, subjects with event [1]: 3 (6.5%) n (%)
- Feeling hot, number of occurrences [1]: 3 E
- Feeling hot, subjects with event [1]: 3 (6.5%) n (%)
- Feeling of relaxation, subjects with event [1]: 0 n (%)
- Flushing, number of occurrences [1]: 1 E
- Flushing, subjects with event [1]: 1 (2.2%) n (%)
- Gastrointestinal disorders, number of occurrences [1]: 10 E
- Gastrointestinal disorders, subjects with event [1]: 9 (19.6%) n (%)
- General disorders and administration site conditions, number of occurrences [1]: 13 E
- General disorders and administration site conditions, subjects with event [1]: 12 (26.1%) n (%)
- Haematoma, number of occurrences [1]: 1 E
- Haematoma, subjects with event [1]: 1 (2.2%) n (%)
- Head discomfort, subjects with event [1]: 0 n (%)
- Headache, number of occurrences [1]: 7 E
- Headache, subjects with event [1]: 7 (15.2%) n (%)
- Hyperhidrosis, number of occurrences [1]: 3 E
- Hyperhidrosis, subjects with event [1]: 3 (6.5%) n (%)
- Hypervigilance, number of occurrences [1]: 16 E
- Hypervigilance, subjects with event [1]: 16 (34.8%) n (%)
- Hypopnoea (shallow breathing), number of occurrences [1]: 1 E
- Hypopnoea (shallow breathing), subjects with event [1]: 1 (2.2%) n (%)
- Infections and infestations, subjects with event [1]: 0 n (%)
- Investigations, number of occurrences [1]: 1 E
- Investigations, subjects with event [1]: 1 (2.2%) n (%)
- Irritability, subjects with event [1]: 0 n (%)
- Lacrimation increased, subjects with event [1]: 0 n (%)
- Metabolism and nutrition disorders, number of occurrences [1]: 3 E
- Metabolism and nutrition disorders, subjects with event [1]: 3 (6.5%) n (%)
- Muscle tightness, number of occurrences [1]: 2 E
- Muscle tightness, subjects with event [1]: 2 (4.3%) n (%)
- Muscle twitching, number of occurrences [1]: 1 E
- Muscle twitching, subjects with event [1]: 1 (2.2%) n (%)
- Musculoskeletal and connective tissue disorders, number of occurrences [1]: 5 E
- Musculoskeletal and connective tissue disorders, subjects with event [1]: 4 (8.7%) n (%)
- Nasal congestion, number of occurrences [1]: 1 E
- Nasal congestion, subjects with event [1]: 1 (2.2%) n (%)
- Nasal discomfort, number of occurrences [1]: 3 E
- Nasal discomfort, subjects with event [1]: 3 (6.5%) n (%)
- Nasal dryness, subjects with event [1]: 0 n (%)
- Nausea, number of occurrences [1]: 1 E
- Nausea, subjects with event [1]: 1 (2.2%) n (%)
- Neck pain, number of occurrences [1]: 1 E
- Neck pain, subjects with event [1]: 1 (2.2%) n (%)
- Nervous system disorders, number of occurrences [1]: 10 E
- Nervous system disorders, subjects with event [1]: 9 (19.6%) n (%)
- Obsessive-compulsive disorder, number of occurrences [1]: 1 E
- Obsessive-compulsive disorder, subjects with event [1]: 1 (2.2%) n (%)
- Palpitations, number of occurrences [1]: 11 E
- Palpitations, subjects with event [1]: 11 (23.9%) n (%)
- Peripheral swelling, number of occurrences [1]: 1 E
- Peripheral swelling, subjects with event [1]: 1 (2.2%) n (%)
- Pharyngeal hypoaesthesia (numbness of throat), number of occurrences [1]: 1 E
- Pharyngeal hypoaesthesia (numbness of throat), subjects with event [1]: 1 (2.2%) n (%)
- Pharyngitis, subjects with event [1]: 0 n (%)
- Phlebitis superficial, subjects with event [1]: 0 n (%)
- Phonophobia (fear of loud noises), number of occurrences [1]: 1 E
- Phonophobia (fear of loud noises), subjects with event [1]: 1 (2.2%) n (%)
- Photophobia, number of occurrences [1]: 1 E
- Photophobia, subjects with event [1]: 1 (2.2%) n (%)
- Psychiatric disorders, number of occurrences [1]: 54 E
- Psychiatric disorders, subjects with event [1]: 41 (89.1%) n (%)
- Pyrexia, subjects with event [1]: 0 n (%)
- Reproductive system and breast disorders, number of occurrences [1]: 2 E
- Reproductive system and breast disorders, subjects with event [1]: 2 (4.3%) n (%)
- Respiratory, thoracic and mediastinal disorders, number of occurrences [1]: 12 E
- Respiratory, thoracic and mediastinal disorders, subjects with event [1]: 10 (21.7%) n (%)
- Restlessness, number of occurrences [1]: 2 E
- Restlessness, subjects with event [1]: 2 (4.3%) n (%)
- Rhinorrhoea (runny nose), subjects with event [1]: 0 n (%)
- Sinus tachycardia, number of occurrences [1]: 7 E
- Sinus tachycardia, subjects with event [1]: 7 (15.2%) n (%)
- Skin and subcutaneous tissue disorders, number of occurrences [1]: 4 E
- Skin and subcutaneous tissue disorders, subjects with event [1]: 4 (8.7%) n (%)
- Skin erosion, number of occurrences [1]: 1 E
- Skin erosion, subjects with event [1]: 1 (2.2%) n (%)
- Sneezing, subjects with event [1]: 0 n (%)
- Somnolence, number of occurrences [1]: 2 E
- Somnolence, subjects with event [1]: 2 (4.3%) n (%)
- Tachycardia, number of occurrences [1]: 9 E
- Tachycardia, subjects with event [1]: 8 (17.4%) n (%)
- Testis discomfort, number of occurrences [1]: 1 E
- Testis discomfort, subjects with event [1]: 1 (2.2%) n (%)
- Throat irritation, number of occurrences [1]: 3 E
- Throat irritation, subjects with event [1]: 3 (6.5%) n (%)
- Upper-airway cough syndrome, subjects with event [1]: 0 n (%)
- Vascular disorders, number of occurrences [1]: 2 E
- Vascular disorders, subjects with event [1]: 2 (4.3%) n (%)
- Ventricular extrasystoles, number of occurrences [1]: 2 E
- Ventricular extrasystoles, subjects with event [1]: 2 (4.3%) n (%)
- Vessel puncture site bruise, number of occurrences [1]: 1 E
- Vessel puncture site bruise, subjects with event [1]: 1 (2.2%) n (%)
- Vessel puncture site pain, number of occurrences [1]: 1 E
- Vessel puncture site pain, subjects with event [1]: 1 (2.2%) n (%)
- Visual impairment, number of occurrences [1]: 1 E
- Visual impairment, subjects with event [1]: 1 (2.2%) n (%)
- Vomiting, subjects with event [1]: 0 n (%)
